Laboratory results taken from patent US10189826B2, “Heterocyclic compounds and methods of use” (Medivation Technologies LLC, priority 2015, dated 2019).

Legend:
Type in all cases: cell-based
[1] = tested on: HepG2_LSSprom cells; test: Cytotoxicity assay (LDH release) in HepG2_LSSprom cells; details: for Cytotoxicity (5 μM) %: LDH release relative to lysis control
Procedure, shortened: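 HepG2_LSSprom cells exposed to compound at 0.625–10 μM in serum-free medium for 6 h or 24 h. Medium LDH measured colorimetrically at 490 nm; release expressed as % of lysis control after vehicle subtraction, negatives set to 0; five independent experiments, triplicate wells, mean±SEM.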

[2] = tested on: SREBP-2 transcriptional activity (SREBP2 cleavage) in HepG2_LSSprom cells; test: Luciferase reporter driven by a SREBP-2 specific promoter in HepG2_LSSprom cells; details: HepG2_LSSprom cells; for SREBP2 Cleavage (5 μM) (% Inh): medium without FBS
Procedure, shortened: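 HepG2_LSSprom cells dosed at 0.625-10 μM in serum-free medium for 6 h (or 24 h), then luciferase luminescence read. Signal normalized to vehicle (100%); IC50 by four-parameter nonlinear fit; five independent experiments, triplicate wells.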

[3] = tested on: HepG2 cells; test: Cell viability in HepG2 cells (MTS); details: 20 μM, 3 days, DMEM without FBS
Description: For viability measurements, HepG2 cells were seeded at 5,000 cells per well in 96-well plates in DMEM supplemented with 10% FBS. After 1 day in culture, cells were treated with compounds (20 μM) for 3 days in DMEM without FBS. Viability was measured by MTS. Treatment with compounds was carried out in medium without FBS, and viability was measured by MTS.

[4] = tested on: SREBP2 cleavage in HEPG2 cells; test: SREBP2 cleavage in HEPG2 cells (Western blot normalized to actin); details: 20 μM, 1 day, DMEM without FBS
Description: Average SREBP2 cleavage in HEPG2 cells was measured in the presence of compounds disclosed in Table 1. HepG2 cells were seeded at 500,000 cells per well in 6-well plates in DMEM supplemented with 10% FBS. After 2 days, cells were treated with compounds (20 μM) for 1 day in DMEM without FBS. Western blots were normalized with respect to actin.

Compound	Cytotoxicity (5 μM) % [1] [%]	SREBP2 Cleavage (5 μM) (% Inh) [2] [% Inh]	further results
CC1(N)CCCN(C(=O)c2ccc(-c3cc(-c4ccnc(C(C)(C)C)c4)cs3)c(Cl)c2)C1 (single isomer, unassigned) [Compound 95b]	–	–	IC50 ([1]; 24 h treatment, LDH release): > 10 µM; IC50 ([2]; 24 h treatment, read-out: SREBP2 Cleavage (IC50 μM) 24 h): 0.65 µM
CCCc1cc(-c2nc(-c3ccc(C(N)=O)cc3)cs2)ccn1 [Compound 3, 4-[2-(2-propylpyridin-4-yl)-1,3-thiazol-4-yl]benzamide]	–	–	Average Viability (% Inhibition, n = 3) [3]: 19.52 % Inhibition; Average SREBP2 cleavage (% Inhibition, n = 3) [4]: 12.18 % Inhibition
CN(C)C(=O)c1ccc(-c2csc(-c3ccnc(N4CCCCC4)c3)n2)c(Cl)c1 [Compound 9, 3-chloro-N,N-dimethyl-4-{2-[2-(piperidin-1-yl)pyridin-4-yl]-1,3-thiazol-4-yl}benzamide]	1	52	–
CCCc1cc(-c2nc(-c3ccc(C(=O)N(C)C)cc3)cs2)ccn1 [Compound 2, N,N-dimethyl-4-[2-(2-propylpyridin-4-yl)-1,3-thiazol-4-yl]benzamide]	–	–	Average Viability (% Inhibition, n = 3) [3]: 30.73 % Inhibition; Average SREBP2 cleavage (% Inhibition, n = 3) [4]: 73.85 % Inhibition
CC(C)(C)c1cc(-c2nc(-c3ccc(C(=O)N4CCCCC4)cc3Cl)cs2)ccn1 [Compound 5, 2-tert-butyl-4-{4-[2-chloro-4-(piperidine-1-carbonyl)phenyl]-1,3-thiazol-2-yl}pyridine]	4	71	–
O=C(c1ccc(-c2csc(-c3cccc4[nH]ccc34)n2)c(Cl)c1)N1CCCCC1 [Compound 4, [3-chloro-4-[2-(1H-indol-4-yl)thiazol-4-yl]phenyl]-(1-piperidyl)methanone]	1	48	–
CN(C)C(=O)c1ccc(-c2csc(-c3cccc4[nH]ccc34)n2)c(Cl)c1 [Compound 6, 3-chloro-4-[2-(1H-indol-4-yl)-1,3-thiazol-4-yl]-N,N-dimethylbenzamide]	0	41	–
